Literature values as cited in patent US6506600B2, “Secreting products from skin by adeno-associated virus (AAV) gene transfer” (University of Arkansas, priority 2000, dated 2003).

Legend:
neutrophil count = conditions: patients with neutropenia due to chemotherapy; initial dose 5 microg/kg/day
neutropenia = conditions: neonates <32 weeks gestation; 10 μg/kg/d subcutaneous for 5 days
[1] = system: pulmonary alveolar proteinosis; conditions: four PAP patients; subcutaneous once daily for 12 wk, 3 to 9 μg/kg/d

| Substance | rise of neutrophil count (median) (neutrophil count) | effect on neutropenia (neutropenia) | symptomatic, physiologic and radiographic response [1] | serum half-life (serum) | t1/2 (in vivo) |
| --- | --- | --- | --- | --- | --- |
| granulocyte macrophage colony stimulating factor [GM-CSF] | 6.6 fold | completely abolished neutropenia | Three of the four patients experienced symptomatic, physiologic, and radiographic improvement | 8 h |  |
| hGH: human growth hormone, 22 kDa |  |  |  |  | 4 min |
